“Also recorded” adds a separate entry of the source.

The experiment concerns the target T1, Aspergillus topoisomerase I (Aspergillus nidulans, UniProt Q5BGS7).
T1 construct: about 105 kDa by phosphate transfer
T1 sequence (Q5BGS7 1-871): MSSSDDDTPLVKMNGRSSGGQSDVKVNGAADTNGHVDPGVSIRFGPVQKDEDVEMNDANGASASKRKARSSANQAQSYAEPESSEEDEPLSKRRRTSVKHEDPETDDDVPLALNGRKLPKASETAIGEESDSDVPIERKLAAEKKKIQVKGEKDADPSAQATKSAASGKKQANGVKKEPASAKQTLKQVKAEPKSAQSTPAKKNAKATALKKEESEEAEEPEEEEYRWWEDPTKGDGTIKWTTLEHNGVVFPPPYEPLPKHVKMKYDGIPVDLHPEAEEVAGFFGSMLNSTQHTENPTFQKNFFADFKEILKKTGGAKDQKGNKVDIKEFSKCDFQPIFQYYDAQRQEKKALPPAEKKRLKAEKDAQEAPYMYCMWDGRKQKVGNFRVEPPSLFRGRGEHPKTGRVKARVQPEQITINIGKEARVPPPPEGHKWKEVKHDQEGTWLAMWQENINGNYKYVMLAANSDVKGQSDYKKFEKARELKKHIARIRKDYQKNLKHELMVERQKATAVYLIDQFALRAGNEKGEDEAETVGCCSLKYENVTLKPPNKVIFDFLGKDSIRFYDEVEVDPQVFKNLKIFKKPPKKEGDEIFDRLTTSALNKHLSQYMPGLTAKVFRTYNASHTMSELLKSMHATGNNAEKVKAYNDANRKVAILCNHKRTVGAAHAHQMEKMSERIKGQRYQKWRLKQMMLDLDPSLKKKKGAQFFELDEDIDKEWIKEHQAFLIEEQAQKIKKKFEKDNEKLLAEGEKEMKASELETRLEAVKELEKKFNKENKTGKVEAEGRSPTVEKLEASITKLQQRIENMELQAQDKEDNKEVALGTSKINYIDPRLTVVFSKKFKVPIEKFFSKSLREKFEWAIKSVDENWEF
The experiment in a line: Topoisomerase I cleavage assay, Aspergillus enzyme. Format: biochemical. The note with it: for inhibition (poisoning) of Aspergillus topoisomerase I, in words: DNA cleavage assay; for concentration at which extensive DNA cleavage was observed: DNA cleavage with Aspergillus topoisomerase I; for sensitivity of Aspergillus versus human topoisomerase I: cleavage assay, Aspergillus 60 units/reaction, human 150 units/reaction.

`CCOc1ccc(-c2nc3cc(-c4nc5cc(N6CCN(C)CC6)ccc5[nH]4)ccc3[nH]2)cc1` [Hoechst 33342, 2'-(4-ethoxyphenyl)-5-(4-methyl-1-piperazinyl)-2,5'-bi-1H-benzimidazole]: the “concentration at which extensive DNA cleavage was observed” value is at most 0.1 mg/mL. Besides, under “listed as Ho33342”, the “inhibition (poisoning) of Aspergillus topoisomerase I, in words” value (“inhibition (poisoning)” for short) is on record as “potent inhibitors; also recorded: selective sensitivity; also recorded: sensitive”. In addition, where the note is “Ho33342 10 mg/ml”, the “topoisomerase I-mediated DNA cleavage at the highest concentration” value is given as “dramatically inhibited”.

Consider `CC[C@@]1(O)C(=O)OCc2c1cc1n(c2=O)Cc2cc3ccccc3nc2-1` [camptothecin], for which the “inhibition (poisoning)” value was “potent inhibitors; also recorded: sensitive”; the “concentration at which extensive DNA cleavage was observed” value is at most 1.0 mg/mL; the “sensitivity of Aspergillus versus human topoisomerase I” value was “less active against the Aspergillus than the human enzyme”. Further, under “listed as CPT”, the “sensitivity of Aspergillus versus human topoisomerase I” value is given as “less sensitive to CPT than the human enzyme”.

For the molecule `c1ccc(-c2ccc3[nH]c(-c4ccc5[nH]c(-c6ccc7[nH]cnc7c6)nc5c4)nc3c2)cc1` [Compound 13, 5-Phenyl-2-[2'(benzimidazol-5"-yl)benzimidazol-5'-yl]benzimidazole], the “inhibition (poisoning)” value is on record as “strongly inhibited (poisoned); also recorded: sensitive” and the “sensitivity of Aspergillus versus human topoisomerase I” value is “substantially more sensitive”.

As to `N#Cc1ccc2[nH]c(-c3ccc4[nH]c(-c5ccc6[nH]cnc6c5)nc4c3)nc2c1` [Compound 11, 5-Cyano-2-[2'-(benzimidazol-5"-yl)benzimidazol-5'-yl]benzimidazole], the “inhibition (poisoning)” value is listed as “strongly inhibited (poisoned); also recorded: sensitive” and the “sensitivity of Aspergillus versus human topoisomerase I” value is recorded as “more active against the Aspergillus than the human enzyme”.

These data come from patent publication US5770617A, “Terbenzimidazoles useful as antifungal agents” (Rutgers, The State University of New Jersey, priority 1997, dated 1998).
